Data: US20060062729A1, “Enhanced ligand binding to neurotensin receptors” (priority 2004, published 2006)
Where “and” joins values, the source holds several entries; their conditions need not be identical. Equal entries are not always repeated. Where two headings read alike, the source gives them in different places. Each block holds one molecule with its values, some of them ahead of it. Non-standard residues stand in square brackets, D forms with d. Residues, ends and D or L forms follow the SMILES beside them. Tyr(3-I) = N[C@@H](Cc1ccc(O)c(I)c1)C(=O)O; pGlu = O=C1CC[C@@H](C(=O)O)N1; Nle = CCCC[C@H](N)C(=O)O

Tests used:
NTR1 [1] = target: T1, NTR1 (Homo sapiens, UniProt P30989); assay: ^125I-NT binding to PC3 cells; conditions: for maximal increase in NT binding to PC3 cells: as much as / up to, dose-response; for NT Binding Efficacy % increase: LOX blockers
bombesin receptor = target: T2, bombesin receptor (Homo sapiens, UniProt P30550); assay: ^125I-[Nle^14]-bombesin binding to PC3 cells; conditions: for Specific Binding (% control) of ^125I-[Nle14]-bombesin: 37° C.
T2 construct: endogenous in cells; host or cells: PC3 cells (ATCC)

NTR1 [2] = target: T1, NTR1; assay: ^125I-NT binding to isolated PC3 cell membranes; parameters: Ab-NTR1 detected two major bands in extracts of PC3 cells, the parent protein of 50 kDa; endogenous in cells; host or cells: PC3 cells (ATCC)
NTR1 [3] = target: T1, NTR1; assay: NT-induced IP formation in PC3 cells; assay type: cell-based; parameters: Ab-NTR1 detected two major bands in extracts of PC3 cells, the parent protein of 50 kDa; endogenous in cells; host or cells: PC3 cells (ATCC)
[4] = general reducing agents and antioxidants
[5] = read-out: NT Binding EC50, [agent] giving 75% increase in NT binding
[6] = vitamin-like antioxidants at 20-180 μM, n=3
[7] = 6 μM enzyme inhibitor, PC3 cells
[8] = 20 μM enzyme inhibitor, PC3 cells
[9] = 60 μM enzyme inhibitor, PC3 cells

T2 sequence (P30550 whole entry): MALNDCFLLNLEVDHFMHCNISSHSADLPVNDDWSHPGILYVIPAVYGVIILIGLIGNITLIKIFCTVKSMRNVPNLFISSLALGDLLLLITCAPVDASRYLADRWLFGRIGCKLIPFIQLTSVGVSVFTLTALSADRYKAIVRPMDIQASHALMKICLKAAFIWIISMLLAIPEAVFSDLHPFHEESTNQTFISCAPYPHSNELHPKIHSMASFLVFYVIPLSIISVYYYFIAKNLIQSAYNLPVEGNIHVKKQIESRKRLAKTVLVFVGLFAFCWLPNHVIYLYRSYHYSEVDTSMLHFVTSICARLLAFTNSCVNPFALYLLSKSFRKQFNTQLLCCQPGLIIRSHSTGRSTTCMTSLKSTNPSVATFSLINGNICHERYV
T1 sequence (P30989 whole entry): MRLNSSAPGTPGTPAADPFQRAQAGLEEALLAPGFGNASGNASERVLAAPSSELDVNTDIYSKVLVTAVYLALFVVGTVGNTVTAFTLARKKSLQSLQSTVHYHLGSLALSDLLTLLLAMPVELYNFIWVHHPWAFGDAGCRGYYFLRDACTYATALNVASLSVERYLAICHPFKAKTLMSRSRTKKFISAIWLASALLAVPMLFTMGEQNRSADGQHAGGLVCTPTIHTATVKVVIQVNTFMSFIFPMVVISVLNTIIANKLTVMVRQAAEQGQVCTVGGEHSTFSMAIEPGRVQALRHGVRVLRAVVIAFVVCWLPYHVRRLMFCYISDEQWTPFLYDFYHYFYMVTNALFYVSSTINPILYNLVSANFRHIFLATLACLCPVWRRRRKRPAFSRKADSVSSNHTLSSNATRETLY

Specific Binding (% control) of ^125I-[Nle14]-bombesin (bombesin receptor; 12 μM LOX blocker): 110 ± 3 % control
Specific Binding (% control) of ^125I-[Nle14]-bombesin (bombesin receptor; 60 μM LOX blocker): 127 ± 4 % control
Specific NT-Binding (% control) (NTR1 [2]; 10 μM LOX pathway blocker): 110 ± 5 % control
Specific NT-Binding (% control) (NTR1 [2]; 25 μM LOX pathway blocker): 121 ± 8 % control
Specific NT-Binding (% control) (NTR1 [2]; 75 μM LOX pathway blocker): 132 ± 10 % control
Molecule: CC(Cc1ccc(O)c(O)c1)C(C)Cc1ccc(O)c(O)c1 (stereo not shown) [NDGA, Nordihydroguaiaretic acid]

EC50 (NTR1 [1]; [5]): 16 µM
Molecule: COC(=O)C1=C(C)NC(C)=C([N+](=O)[O-])C1c1ccccc1C(F)(F)F (stereo not shown) [BayK-8644]

effect on NT binding (NTR1 [1]; [4]): not much affected
effect on NT binding (NTR1 [1]; [6]): ineffective
Molecule: Cc1cc2nc3c(=O)[nH]c(=O)nc-3n(C[C@H](O)[C@H](O)[C@H](O)CO)c2cc1C [riboflavin]

effect on NT binding (NTR1 [1]; [6]): ineffective
Molecule: CC1=C(/C=C/C(C)=C/C=C/C(C)=C/C=C/C=C(C)/C=C/C=C(C)/C=C/C2=C(C)CCCC2(C)C)C(C)(C)CCC1 [β-carotene]

effect on NT binding (NTR1 [1]; less specific CCBs): only modest effects
Molecule: CN1CCN(CCCN2c3ccccc3Sc3ccc(C(F)(F)F)cc32)CC1 [trifluoperazine]

Specific NT-Binding (% control) (NTR1 [1]; [7]): 109 ± 4 % control
Specific NT-Binding (% control) (NTR1 [1]; [8]): 95 ± 6 % control
Specific NT-Binding (% control) (NTR1 [1]; [9]): 113 ± 7 % control
Molecule: COc1ccc2c(c1)c(CC(=O)O)c(C)n2C(=O)c1ccc(Cl)cc1 [indomethacin]

effect on NT binding (NTR1 [1]; used at 10-100 μM, n=3): without effect
Molecule: O=c1oc2c(O)c(O)cc3c(=O)oc4c(O)c(O)cc1c4c23 [ellagic acid]

effect on NT binding (NTR1 [1]; [4]): not much affected
effect on NT binding (NTR1 [1]; used at 10-100 μM, n=3): without effect
Molecule: Cc1c(C)c2c(c(C)c1O)CCC(C)(C(=O)O)O2 (stereo not shown) [trolox]

maximal increase in NT binding to PC3 cells (NTR1 [1]): ≤ 1.4 fold
Molecule: COc1ccc([C@@H]2Sc3ccccc3N(CCN(C)C)C(=O)[C@@H]2OC(C)=O)cc1 [Diltiazem, diltiazem]

effect on NT binding (NTR1 [1]; less specific CCBs): only modest effects
Molecule: Fc1ccc(C(c2ccc(F)cc2)N2CCN(C/C=C/c3ccccc3)CC2)cc1 [flunarizine]

effect on NT binding (figure legend) (NTR1 [1]; FIG. 21A): enhanced NT-binding to NTR
effect on NT-induced IP formation (figure legend) (NTR1 [3]; FIG. 21B): inhibited NT-induced IP formation
Molecule: O=c1c(O)c(-c2ccc(O)c(O)c2)oc2cc(O)cc(O)c12 [quercetin]

Specific Binding (% control) of ^125I-[Nle^14]-bombesin (bombesin receptor; 12 μM agent): 99 ± 2 % control
Specific Binding (% control) of ^125I-[Nle^14]-bombesin (bombesin receptor; 60 μM agent): 106 ± 4 % control
Molecule: COc1ccc(CCCOC(Cn2ccnc2)c2ccc(OC)cc2)cc1 (stereo not shown) [SKF-96365]

effect on NT binding (NTR1 [1]; used at 1-3 mM, n=3): without effect
Molecule: N[C@@H](CCC(=O)N[C@@H](CS)C(=O)NCC(=O)O)C(=O)O [glutathione]

NT Binding Efficacy % increase (NTR1 [1]): 157 % increase
EC50 (NTR1 [1]; read-out: NT Binding EC50, [agent] giving 100% increase in NT binding): 34 µM
Molecule: CCCc1c(OCCCCc2nnn[nH]2)ccc(C(C)=O)c1O [LY171883]

effect on NT binding (NTR1 [1]; [4]): not much affected
effect on NT binding (NTR1 [1]; [6]): ineffective
Molecule: Cc1ncc(C[n+]2csc(CCO)c2C)c(N)n1 [thiamine]

effect on NT binding (NTR1 [1]; used at 1-3 mM, n=3): without effect
Molecule: CC(=O)N[C@@H](CS)C(=O)O [N-acetyl cysteine]

EC50 (NTR1 [1]; [5]): 29 µM
Molecule: COC(=O)c1c(C)[nH]c(C)c1C(=O)c1ccccc1Cc1ccccc1 [FPL-64176]

effect on NT binding (NTR1 [1]; [4]): not much affected
Molecule: O[C@H](CS)[C@H](O)CS (racemic) [DTT, dithiothreitol]

Specific NT-Binding (% control) (NTR1 [2]; 10 μM LOX pathway blocker): 102 ± 3 % control
Specific NT-Binding (% control) (NTR1 [2]; 25 μM LOX pathway blocker): 115 ± 4 % control
Specific NT-Binding (% control) (NTR1 [2]; 75 μM LOX pathway blocker): 142 ± 8 % control
Molecule: CC1=C(/C=C/C(C)=C/C=C/C(C)=C/C(=O)O)C(C)(C)CCC1 [Retinoic Acid, retinoic acid]

effect on NT binding (NTR1 [1]; [4]): not much affected
effect on NT binding (NTR1 [1]; [6]): ineffective
Molecule: Cc1ncc(CO)c(CO)c1O [pyridoxine]

effect on NT binding (NTR1 [1]; [4]): not much affected
effect on NT binding (NTR1 [1]; [6]): ineffective
Molecule: O=C1O[C@H]([C@@H](O)CO)C(O)=C1O [ascorbic acid]

More lines, now with the values behind:

Molecule: N#CC(=C(/N)Sc1ccccc1N)/C(C#N)=C(\N)Sc1ccccc1N [U0126]
Specific NT-Binding (% control) (NTR1 [1]): 118 ± 6 % control and 108 ± 6 % control and 120 ± 9 % control

Molecule: CC(=O)OCOC(=O)CN(CC(=O)OCOC(C)=O)c1ccccc1OCCOc1ccccc1N(CC(=O)OCOC(C)=O)CC(=O)OCOC(C)=O [BAPTA-AM, 1,2-bis(o-aminophenoxy)ethane-N,N,N′,N′-tetraacetic acid tetra(acetoxymethyl) ester]
effect on NT binding (NTR1 [1]; chelation of intracellular Ca^2+, 50 μM BAPTA-AM): nor was NT binding altered

Molecule: [BH4-].[Na+] [sodium borohydride]
effect on NT binding (NTR1 [1]; [4]): not much affected
effect on NT binding (NTR1 [1]; used at 1-3 mM, n=3): without effect

Molecule: Oc1cc(O)c2c(c1)O[C@H](c1ccc(O)c(O)c1)[C@@H](O)C2 [(+)-catechin]
effect on NT binding (NTR1 [1]; used at 10-100 μM, n=3): without effect

Molecule: COc1ccc(CCN(C)CCCC(C#N)(c2ccc(OC)c(OC)c2)C(C)C)cc1OC (stereo not shown) [Verapamil, verapamil]
Specific Binding (% control) of ^125I-[Nle^14]-bombesin (bombesin receptor; 12 μM agent): 104 ± 4 % control
Specific Binding (% control) of ^125I-[Nle^14]-bombesin (bombesin receptor; 60 μM agent): 104 ± 4 % control

Molecule: c1ccc2c(c1)[I+]c1ccccc1-2 [Diphenylene iodonium]
EC50 (NTR1 [1]): 61 µM
IC50 (NTR1 [3]; [agent] giving 50% decrease in IP formation, read-out: IP Formation IC50): 35 µM

Molecule: COc1ccc(O)c(C(C)(C)C)c1 [BHA, butylated hydroxy anisole]
EC50 (NTR1 [1]; [5]): 110 µM

Molecule: O=C(/C=C/c1ccc(O)c(O)c1)OCCc1ccccc1 [CAPE, caffeic acid phenethyl ester]
EC50 (NTR1 [1]): 34 µM
maximal increase in NT binding to PC3 cells (NTR1 [1]): ≤ 2.8 fold
IC50 (NTR1 [3]): 18 µM

Molecule: CCCCCC(O)c1cccc(OCc2ccc3ccccc3n2)c1 (stereo not shown) [Rev5901]
Specific Binding (% control) of ^125I-[Nle14]-bombesin (bombesin receptor; 12 μM LOX blocker): 107 ± 3 % control
Specific Binding (% control) of ^125I-[Nle14]-bombesin (bombesin receptor; 60 μM LOX blocker): 119 ± 3 % control
NT Binding Efficacy % increase (NTR1 [1]): 160 % increase
maximal increase in NT binding to PC3 cells (NTR1 [1]): ≤ 2.4 fold
Specific NT-Binding (% control) (NTR1 [2]; 10 μM LOX pathway blocker): 101 ± 4 % control
Specific NT-Binding (% control) (NTR1 [2]; 25 μM LOX pathway blocker): 113 ± 5 % control
Specific NT-Binding (% control) (NTR1 [2]; 75 μM LOX pathway blocker): 110 ± 5 % control

Molecule: Cc1c(C)c2c(c(C)c1O)CC[C@@](C)(CCC[C@H](C)CCC[C@H](C)CCCC(C)C)O2 [α-tocoferol]
effect on NT binding (NTR1 [1]; [6]): ineffective

Molecule: N#CC(C#N)=NNc1cccc(Cl)c1 [CCCP, Carbonyl cyanide 3-chlorophenylhydrozone]
EC50 (NTR1 [1]): 23 µM

Molecule: C[S+]([O-])c1ccc(-c2nc(-c3ccncc3)c(-c3ccc(F)cc3)[nH]2)cc1 (stereo not shown) [SB203580]
Specific NT-Binding (% control) (NTR1 [1]; [7]): 108 ± 8 % control
Specific NT-Binding (% control) (NTR1 [1]; [8]): 116 ± 7 % control
Specific NT-Binding (% control) (NTR1 [1]; [9]): 125 ± 9 % control

Molecule: CCCC[C@H](NC(=O)[C@H](CC(C)C)NC(=O)[C@H](Cc1c[nH]cn1)NC(=O)CNC(=O)[C@@H](NC(=O)[C@H](C)NC(=O)[C@H](Cc1c[nH]c2ccccc12)NC(=O)[C@H](CCC(N)=O)NC(=O)[C@H](CC(N)=O)NC(=O)CNC(=O)[C@H](Cc1ccc(O)c(I)c1)NC(=O)[C@H](CCCNC(=N)N)NC(=O)[C@H](CCC(N)=O)NC(=O)[C@@H]1CCC(=O)N1)C(C)C)C(N)=O [^125I-[Nle^14]-bombesin] ([pGlu]QR[Tyr(3-I)]GNQWAVGHL[Nle]-NH2; C-terminus assumed)
Specific Binding (% of total) (bombesin receptor; 10^5 cpm ^125I-ligand): 95 % of total
Bmax (bombesin receptor; Scatchard analysis): 1016 ± 64 fmol/mg

Molecule: C=C(C)[C@H]1Cc2c(ccc3c2O[C@@H]2COc4cc(OC)c(OC)cc4[C@@H]2C3=O)O1 [rotenone]
EC50 (NTR1 [1]): 38 µM

Molecule: O=C(O)CN(CCOCCOCCN(CC(=O)O)CC(=O)O)CC(=O)O [EGTA, ethylene glycol tetra-acetic acid]
increase in NT binding (NTR1 [1]): 38±6 % increase
effect on NT-induced IP formation (NTR1 [3]; Ca^2+-chelator added): inhibited

Molecule: Cc1cc2c(C(C)C)c(O)c(O)c(C=O)c2c(O)c1-c1c(C)cc2c(C(C)C)c(O)c(O)c(C=O)c2c1O [Gossypol, gossypol]
NT Binding Efficacy % increase (NTR1 [1]): 170 % increase
IC50 (NTR1 [3]; [agent] that decreased IP formation by 40%, read-out: IP Formation IC50): 20 µM

Molecule: (−)-epigallocatechin gallate
effect on NT binding (NTR1 [1]; used at 10-100 μM, n=3): without effect
